# Measurements published in ChEMBL document CHEMBL4840359, “N-Terminus to Arginine Side-Chain Cyclization of Linear Peptidic Neuropeptide Y Y4 Receptor Ligands Results in Picomolar Binding Constants” (J Med Chem, 2021).
# The source made the active and inactive calls. The rule behind the calls is not given here. Residues, ends and D or L forms follow the SMILES beside them.
# Tests used:
# [1] = target: T1, Neuropeptide Y receptor type 4 (Homo sapiens, UniProt P50391); assay: Agonist activity at human neuropeptide Y Y4 receptor expressed in HEK293T-ARRB1 cells assessed as stimulation of beta-arrestin 1 recruitment by multimode plate reader; assay type: functional, cell-based
# T1 sequence (P50391 whole entry): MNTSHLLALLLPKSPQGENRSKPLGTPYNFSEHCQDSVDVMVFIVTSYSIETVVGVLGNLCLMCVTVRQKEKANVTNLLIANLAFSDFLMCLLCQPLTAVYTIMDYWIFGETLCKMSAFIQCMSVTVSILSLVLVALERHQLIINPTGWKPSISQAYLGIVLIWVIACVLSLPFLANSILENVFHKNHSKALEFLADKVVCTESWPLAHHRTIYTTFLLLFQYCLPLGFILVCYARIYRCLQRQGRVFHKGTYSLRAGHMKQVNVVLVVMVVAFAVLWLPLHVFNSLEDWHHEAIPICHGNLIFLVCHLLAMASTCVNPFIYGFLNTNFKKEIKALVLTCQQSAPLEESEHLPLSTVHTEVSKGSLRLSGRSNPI
# Homo sapiens [2] = species: Homo sapiens; assay: Selectivity ratio, Ki for displacement of [3H]propionyl-pNPY from human neuropeptide Y Y5 receptor in human HEC-1B cells measured after 90 mins by scintillation counting analysis to Ki for displacement of [3H]UR-KK200 from human neuropeptide Y Y4 receptor expressed in CHO-mtAEQ cells co-expressing Gqi5 measured after 90 mins by scintillation counting analysis; assay type: cell-based
# [3] = target: T2, Neuropeptide Y receptor type 5 (Homo sapiens, UniProt Q15761); assay: Displacement of [3H]propionyl-pNPY from human neuropeptide Y Y5 receptor in human HEC-1B cells measured after 90 mins by scintillation counting analysis; assay type: cell-based, HEC-1B cell line
# T2 sequence (Q15761 whole entry): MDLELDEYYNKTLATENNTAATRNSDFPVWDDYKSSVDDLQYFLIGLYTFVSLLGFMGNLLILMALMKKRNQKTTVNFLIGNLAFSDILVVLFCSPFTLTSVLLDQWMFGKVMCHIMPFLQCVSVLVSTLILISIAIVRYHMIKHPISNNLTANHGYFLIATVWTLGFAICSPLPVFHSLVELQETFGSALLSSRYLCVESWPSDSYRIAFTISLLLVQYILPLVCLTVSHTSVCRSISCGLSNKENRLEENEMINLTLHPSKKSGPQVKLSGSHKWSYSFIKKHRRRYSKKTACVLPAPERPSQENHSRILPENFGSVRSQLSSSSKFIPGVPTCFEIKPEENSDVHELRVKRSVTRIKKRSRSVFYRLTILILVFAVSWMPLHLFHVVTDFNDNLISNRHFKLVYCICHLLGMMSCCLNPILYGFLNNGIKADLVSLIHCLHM
# [4] = target: T1, Neuropeptide Y receptor type 4; assay: Intrinsic activity at human neuropeptide Y Y4 receptor expressed in HEK293T-ARRB2 cells assessed as stimulation of beta-arrestin 2 recruitment by multimode plate reader relative to hPP; assay type: functional, cell-based
# [5] = target: T1, Neuropeptide Y receptor type 4; assay: Intrinsic activity at human neuropeptide Y Y4 receptor expressed in CHO-mtAEQ cells co-expressing Gqi5 by calcium aequorin assay; assay type: functional, cell-based
# Homo sapiens [6] = species: Homo sapiens; assay: Selectivity ratio, Ki for displacement of [3H]UR-MK299 from human neuropeptide Y Y2 receptor expressed in CHO cells measured after 90 mins by scintillation counting analysis to Ki for displacement of [3H]UR-KK200 from human neuropeptide Y Y4 receptor expressed in CHO-mtAEQ cells co-expressing Gqi5 measured after 90 mins by scintillation counting analysis; assay type: cell-based
# [7] = target: T3, Neuropeptide Y receptor type 1 (Homo sapiens, UniProt P25929); assay: Displacement of [3H]UR-MK299 from human neuropeptide Y Y1 receptor in human SK-N-MC cells measured after 90 mins by scintillation counting analysis; assay type: cell-based
# T3 sequence (P25929 whole entry): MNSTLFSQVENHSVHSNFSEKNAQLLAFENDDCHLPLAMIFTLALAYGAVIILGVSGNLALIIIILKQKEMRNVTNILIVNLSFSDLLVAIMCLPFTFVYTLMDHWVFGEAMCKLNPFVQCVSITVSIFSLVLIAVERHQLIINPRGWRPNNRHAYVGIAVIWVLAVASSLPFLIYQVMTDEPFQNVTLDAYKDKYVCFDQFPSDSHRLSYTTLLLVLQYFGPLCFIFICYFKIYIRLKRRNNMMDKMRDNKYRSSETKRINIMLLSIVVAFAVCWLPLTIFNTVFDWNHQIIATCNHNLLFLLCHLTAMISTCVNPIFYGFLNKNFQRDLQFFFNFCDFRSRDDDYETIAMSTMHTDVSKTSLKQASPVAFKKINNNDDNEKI
# [8] = target: T1, Neuropeptide Y receptor type 4; assay: Displacement of [3H]UR-KK200 from human neuropeptide Y Y4 receptor expressed in CHO-mtAEQ cells co-expressing Gqi5 assessed as fold change in affinity measured after 90 mins by scintillation counting analysis relative to Ac-Arg-Tyr-Arg-Leu-Arg-Tyr-NH2; assay type: cell-based; conditions: filed as agonist
# Homo sapiens [9] = species: Homo sapiens; assay: Selectivity ratio, Ki for displacement of [3H]UR-MK299 from human neuropeptide Y Y1 receptor in human SK-N-MC cells measured after 90 mins by scintillation counting analysis to Ki for displacement of [3H]UR-KK200 from human neuropeptide Y Y4 receptor expressed in CHO-mtAEQ cells co-expressing Gqi5 measured after 90 mins by scintillation counting analysis; assay type: cell-based
# [10] = target: T1, Neuropeptide Y receptor type 4; assay: Intrinsic activity at human neuropeptide Y Y4 receptor expressed in HEK293T-ARRB1 cells assessed as stimulation of beta-arrestin 1 recruitment by multimode plate reader relative to hPP; assay type: functional, cell-based
# [11] = target: T1, Neuropeptide Y receptor type 4; assay: Agonist activity at human neuropeptide Y Y4 receptor expressed in CHO-mtAEQ cells co-expressing Gqi5 by calcium aequorin assay; assay type: functional, cell-based
# [12] = target: T1, Neuropeptide Y receptor type 4; assay: Agonist activity at human neuropeptide Y Y4 receptor expressed in HEK293T-ARRB2 cells assessed as stimulation of beta-arrestin 2 recruitment by multimode plate reader; assay type: functional, cell-based
# [13] = target: T1, Neuropeptide Y receptor type 4; assay: Displacement of [3H]UR-KK200 from human neuropeptide Y Y4 receptor expressed in CHO-mtAEQ cells co-expressing Gqi5 measured after 90 mins by scintillation counting analysis; assay type: cell-based
# [14] = target: T4, Neuropeptide Y receptor type 2 (Homo sapiens, UniProt P49146); assay: Displacement of [3H]UR-MK299 from human neuropeptide Y Y2 receptor expressed in CHO cells measured after 90 mins by scintillation counting analysis; assay type: cell-based
# T4 sequence (P49146 whole entry): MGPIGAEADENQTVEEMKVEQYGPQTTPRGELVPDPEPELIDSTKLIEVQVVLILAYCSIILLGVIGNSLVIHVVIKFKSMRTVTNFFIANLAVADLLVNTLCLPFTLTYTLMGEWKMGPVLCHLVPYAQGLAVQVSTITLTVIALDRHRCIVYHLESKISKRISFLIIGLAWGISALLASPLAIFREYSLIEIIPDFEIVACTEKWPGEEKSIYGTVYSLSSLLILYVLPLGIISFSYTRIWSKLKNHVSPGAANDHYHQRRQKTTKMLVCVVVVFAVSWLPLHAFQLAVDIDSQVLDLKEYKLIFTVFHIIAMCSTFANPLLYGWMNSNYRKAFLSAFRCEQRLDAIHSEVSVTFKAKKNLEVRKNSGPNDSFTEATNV
# [15] = Stability in human plasma assessed as intact peptide measured after 2 hr at 37 degC by RP-HPLC analysis; assay type: ADME, cell-free; conditions: read-out: Stability
# [16] = Stability in human plasma assessed as intact peptide measured after 6 hr at 37 degC by RP-HPLC analysis; assay type: ADME, cell-free; conditions: read-out: Stability
# [17] = Stability in human plasma assessed as intact peptide measured after 1 hr at 37 degC by RP-HPLC analysis; assay type: ADME, cell-free; conditions: read-out: Stability
# [18] = Stability in human plasma assessed as half life at 37 degC by RP-HPLC analysis; assay type: ADME, cell-free
# [19] = Stability in human plasma assessed as intact peptide measured after 30 mins at 37 degC by RP-HPLC analysis; assay type: ADME, cell-free; conditions: read-out: Stability
EC50 ([1]; read-out: pEC50 (converted)) [µM],Ki ([3]; read-out: pKi (converted)) [µM],Intrinsic activity [4],Intrinsic activity [5],Ki ([7]; read-out: Ki) [µM],Ki ([7]; read-out: pKi (converted)) [µM],fold change (FC) [8],Intrinsic activity [10],EC50 [11] [µM],EC50 [12] [µM],Ki ([13]; read-out: Ki) [µM],Ki ([14]; read-out: Ki) [µM],Ki ([14]; read-out: pKi (converted)) [µM],"Ki ([3]; hec-1b cell line, read-out: Ki) [µM]",Compound,Selectivity ratio (Homo sapiens [2]),Selectivity ratio (Homo sapiens [6]),Selectivity ratio (Homo sapiens [9]),also measured
> 10,> 3.16,inactive,inactive,> 3,> 3.16,-8.8,inactive,> 10,> 10,0.03,> 3,> 3.16,,CC(C)C[C@H](NC(=O)[C@@H]1CCC(=O)NCC(=O)N[C@H](CCCNC(=N)N)C(=O)N[C@@H](CCCNC(=N)N)C(=O)N1)C(=O)N[C@@H](CCCNC(=N)N)C(=O)N[C@@H](Cc1ccc(O)cc1)C(N)=O,> 100,> 100,> 100,Ki ([3]; read-out: Ki): > 3 µM; Ki ([13]; read-out: pKi (converted)): 0.0288 µM
0.0851,> 10,inactive,inactive,> 3,> 3.16,-15,inactive,0.0759,0.145,0.05,> 3,> 3.16,> 10,"N=C(N)NCCC[C@H](NC(=O)CCC(=O)O)C(=O)N[C@@H](Cc1ccc(O)cc1)C(=O)N[C@@H](CCCNC(=N)NC(=O)NCCCCN)C(=O)N[C@@H](Cc1c[nH]c2ccccc12)C(=O)N[C@@H](CCCNC(=N)N)C(=O)N[C@@H](Cc1ccc(O)cc1)C(N)=O (single isomer, unassigned)",> 200,> 60,> 60,
,,,,,,,,,,,,,,CC(=O)N[C@@H](CCCNC(=N)N)C(=O)N[C@@H](Cc1ccc(O)cc1)C(=O)N[C@@H](CCCN/C(N)=N/C(=O)NCCCCN)C(=O)N[C@@H](CC(C)C)C(=O)N[C@@H](CCCNC(=N)N)C(=O)N[C@@H](Cc1ccc(O)cc1)C(N)=O (HELM PEPTIDE1{[ac].R.Y.[NCCCCNC(=O)/N=C(\N)NCCC[C@H](N[*:1])C(=O)[*:2]].L.R.Y.[am]}$$$$V2.0),,,,remaining at 2 h [15]: 38%; remaining at 6 h [16]: 9%; remaining at 1 h [17]: 77%; half-life [18]: 1.7 h; remaining at 0.5 h [19]: > 99%
,> 10,83%,61%,> 3,> 10,2.1,84%,0.191,0.0955,0.0016,> 10,> 10,> 10,"N=C(N)NCCC[C@@H]1NC(=O)CCC(=O)NCCCCNC(=O)NC(=N)NCCC[C@@H](C(=O)N[C@@H](Cc2c[nH]c3ccccc23)C(=O)N[C@@H](CCCNC(=N)N)C(=O)N[C@@H](Cc2ccc(O)cc2)C(N)=O)NC(=O)[C@H](Cc2ccc(O)cc2)NC1=O (HELM PEPTIDE1{R.Y.[N=C(NCCC[C@H](N[*:1])C(=O)[*:2])N[*:3]].W.R.Y.[am]}|CHEM1{[O=C(CCC(=O)[*:1])NCCCCNC(=O)[*:2]]}$PEPTIDE1,CHEM1,1:R1-1:R1|PEPTIDE1,CHEM1,3:R3-1:R2$$$V2.0)",> 6200,> 6200,> 1800,EC50 ([1]; read-out: EC50): 0.13 µM
